In US5527781A, “4-O-(aminoglycosyl)- or 4,6-di-O-(aminoglycosyl)-2,5-dideoxy-5,5-difluorostreptamine derivatives” (Zaidan Hojin Biseibutsu Kagaku Kenkyu Kai, priority 1990, dated 1996):
≈ marks a conversion by molar mass, not a printed value. Read-outs that look alike come from different tables or passages of the source.

How the values were obtained:
Bacillus subtilis PCI219 = assay: MIC, standard serial dilution method; format: cell-based; details: Mueller-Hinton agar, 37° C
Providencia sp. Pv 16 = assay: MIC, standard serial dilution method; format: cell-based; details: SP.PV16, resistance mechanism AAC(2'), Mueller-Hinton agar, 37° C
in vivo = details: mouse, iv
Description: Further, in order to estimate acute toxicity of the compound of the general formula (I) according to this invention, some examples of the compounds of this invention were independently dissolved in water to prepare aqueous solutions (as adjusted to pH 7 by addition of hydrochloric acid). […] The tested compounds of this invention are expressed by the same abbreviations as in Table 1. […] The comparative compounds as tested are also expressed by the same abbreviations as in Table 1.

[1] = test system: Klebsiella pneumoniae 22#3038; assay: MIC, standard serial dilution method; format: cell-based; details: resistance mechanism APH(3')-II, ANT(2"), Mueller-Hinton agar, 37° C
[2] = test system: Escherichia coli K-12 ML 1629; assay: microbe, parasite or virus in culture; format: cell-based; details: K12ML1629
Proteus rettgeri GN 311 = assay: MIC, standard serial dilution method; format: cell-based; details: Providencia rettgeri, GN311; Proteus rettgeri GN 311; Mueller-Hinton agar, 37° C; read-out: MIC
[3] = test system: Pseudomonas aeruginosa A3; assay: MIC, standard serial dilution method; format: cell-based; details: Mueller-Hinton agar, 37° C
Escherichia coli K-12 = assay: MIC, standard serial dilution method; format: cell-based; details: K12
[4] = test system: Staphylococcus aureus 209P; assay: MIC, standard serial dilution method; format: cell-based; details: Mueller-Hinton agar, 37° C
Escherichia coli K-12 R5 = assay: microbe, parasite or virus in culture; format: cell-based; details: K12R5; Escherichia coli K-12 R5; resistance mechanism AAC(6'); Mueller-Hinton agar, 37° C
Serratia marcescens = assay: MIC, standard serial dilution method; format: cell-based; details: Mueller-Hinton agar, 37° C
[5] = test system: Staphylococcus aureus Ap01; assay: MIC, standard serial dilution method; format: cell-based; details: resistance mechanism ANT(4'), Mueller-Hinton agar, 37° C
Mycobacterium 607 = assay: MIC, standard serial dilution method; format: cell-based; details: Mueller-Hinton agar, 37° C
[6] = test system: Pseudomonas aeruginosa GN 315; assay: MIC, standard serial dilution method; format: cell-based; details: GN315
[7] = test system: Escherichia coli K-12 LA 290 R55; assay: microbe, parasite or virus in culture; format: cell-based; details: K12LA290R55; Escherichia coli K-12 LA 290 R55; resistance mechanism ANT(2"); Mueller-Hinton agar, 37° C
[8] = test system: Corynebacterium bovis 1810; assay: MIC, standard serial dilution method; format: cell-based; details: Mueller-Hinton agar, 37° C
Escherichia coli JR225 = assay: microbe, parasite or virus in culture; format: cell-based; details: resistance mechanism AAC(3), Mueller-Hinton agar, 37° C
[9] = Escherichia coli K-12 ML 1629, resistance mechanism APH(3')-I, Mueller-Hinton agar, 37° C, read-out: MIC
[10] = Escherichia coli K-12, Mueller-Hinton agar, 37° C, read-out: MIC
[11] = Pseudomonas aeruginosa GN 315, resistance mechanism AAC(6'), Mueller-Hinton agar, 37° C, read-out: MIC

| SMILES | MIC (Bacillus subtilis PCI219) | MIC (Providencia sp. Pv 16) | LD50 (in vivo; pH 7) | MIC [1] | MIC [2, 9] | MIC (Proteus rettgeri GN 311) | MIC [3] | MIC (Escherichia coli K-12; [10]) | MIC [4] | MIC (Escherichia coli K-12 R5) | MIC (Serratia marcescens) | MIC [5] | MIC (Mycobacterium 607) | MIC [6, 11] | MIC [7] | MIC [8] | MIC (Escherichia coli JR225) | also measured |
| --- | --- | --- | --- | --- | --- | --- | --- | --- | --- | --- | --- | --- | --- | --- | --- | --- | --- | --- |
| NC[C@H]1O[C@H](O[C@H]2[C@H](F)[C@@H](O[C@H]3O[C@H](CO)[C@@H](O)[C@H](N)[C@H]3O)[C@H](N)C[C@@H]2N)[C@H](N)C[C@@H]1O [Compound 5F-TOB, 5,3'-dideoxy-5-fluorokanamycin B, reference compound] | < 0.2 µg/mL | 3.12 µg/mL (≈ 6.65 µM) | ~180 mg/kg | 3.12 µg/mL (≈ 6.65 µM) |  |  |  |  |  |  |  |  |  |  |  |  |  |  |
| NCC[C@H](O)C(=O)N[C@@H]1C[C@H](N)[C@@H](O[C@H]2O[C@H](CN)CC[C@H]2N)[C@H](O)[C@H]1O[C@H]1O[C@H](CO)[C@@H](O)[C@H](N)[C@H]1O [HBK, 1-N-[4-amino-(S)-2-hydroxybutyryl]-3',4'-dideoxykanamycin B, reference compound] |  |  | 70 mg/kg |  |  |  |  |  |  |  |  |  |  |  |  |  |  |  |
| NC[C@H]1O[C@H](O[C@H]2[C@H](O)[C@@H](O[C@H]3O[C@H](CO)[C@@H](O)[C@H](N)[C@H]3O)[C@H](N)C[C@@H]2N)[C@H](N)[C@@H](O)[C@@H]1O [KMB, kanamycin B, reference compound] | < 0.2 µg/mL | 12.5 µg/mL (≈ 25.9 µM) |  | > 100 µg/mL | > 100 µg/mL | 0.2 µg/mL (≈ 0.414 µM) | 1.56 µg/mL (≈ 3.23 µM) | 0.39 µg/mL (≈ 0.807 µM) | 0.39 µg/mL (≈ 0.807 µM) |  |  |  |  |  |  |  |  |  |
| NC[C@H]1O[C@H](O[C@H]2[C@H](O)[C@@H](O[C@H]3O[C@H](CO)[C@@H](O)[C@H](N)[C@H]3O)[C@H](N)C[C@@H]2N)[C@H](N)C[C@@H]1O [TOB, 3'-deoxykanamycin B, reference compound] | < 0.2 µg/mL | 6.25 µg/mL (≈ 13.4 µM) | ~80 mg/kg | 12.5 µg/mL (≈ 26.7 µM) |  | 0.39 µg/mL (≈ 0.834 µM) |  | 0.39 µg/mL (≈ 0.834 µM) | < 0.2 µg/mL | 25 µg/mL (≈ 53.5 µM) | 3.12 µg/mL (≈ 6.67 µM) | 12.5 µg/mL (≈ 26.7 µM) | 0.39 µg/mL (≈ 0.834 µM) | 25 µg/mL (≈ 53.5 µM) | 12.5 µg/mL (≈ 26.7 µM) | 1.56 µg/mL (≈ 3.34 µM) |  | MIC ([2]; Escherichia coli): 0.78 µg/mL (≈ 1.67 µM) |
| NC[C@H]1O[C@H](O[C@@H]2[C@@H](N)C[C@@H](N)[C@H](O[C@H]3O[C@H](CO)[C@@H](O)[C@H](N)[C@H]3O)C2(F)F)[C@H](O)[C@@H](O)[C@@H]1O [Compound 5FF-KMA, 5-deoxy-5,5-difluorokanamycin A] | 0.78 µg/mL (≈ 1.55 µM) | 12.5 µg/mL (≈ 24.8 µM) | > 300 mg/kg |  | > 100 µg/mL | 1.56 µg/mL (≈ 3.09 µM) | 6.25 µg/mL (≈ 12.4 µM) |  | 3.12 µg/mL (≈ 6.18 µM) | > 100 µg/mL | 12.5 µg/mL (≈ 24.8 µM) | 50 µg/mL (≈ 99.1 µM) | 3.12 µg/mL (≈ 6.18 µM) | > 100 µg/mL | 12.5 µg/mL (≈ 24.8 µM) | 12.5 µg/mL (≈ 24.8 µM) | 1.56 µg/mL (≈ 3.09 µM) | MIC (Escherichia coli K-12; Escherichia coli): 0.78 µg/mL (≈ 1.55 µM) |
| NC[C@H]1O[C@H](O[C@H]2[C@H](F)[C@@H](O[C@H]3O[C@H](CO)[C@@H](O)[C@H](N)[C@H]3O)[C@H](N)C[C@@H]2N)[C@H](N)[C@@H](O)[C@@H]1O [5-deoxy-5-fluorokanamycin B, reference compound] |  |  |  |  |  |  |  |  |  |  |  |  |  |  |  |  |  | LD50 (in vivo): ~135 mg/kg |
| NCC[C@H](O)C(=O)N[C@@H]1C[C@H](N)[C@@H](O[C@H]2O[C@H](CN)CC[C@H]2N)[C@H](F)[C@H]1O[C@H]1O[C@H](CO)[C@@H](O)[C@H](N)[C@H]1O [Compound 5F-DKB-AHB, 1-N-[4-amino-2-(S)-hydroxybutyryl]-5,3',4'-trideoxy-5-fluorokanamycin B, reference compound] | < 0.2 µg/mL | 0.39 µg/mL (≈ 0.703 µM) |  | 0.78 µg/mL (≈ 1.41 µM) | 0.39 µg/mL (≈ 0.703 µM) |  |  | < 0.2 µg/mL |  | 12.5 µg/mL (≈ 22.5 µM) | 3.12 µg/mL (≈ 5.63 µM) | 1.56 µg/mL (≈ 2.81 µM) |  |  | 0.39 µg/mL (≈ 0.703 µM) |  | < 0.2 µg/mL |  |
| NC[C@H]1O[C@H](O[C@@H]2[C@@H](N)C[C@@H](N)[C@H](O[C@H]3O[C@H](CO)[C@@H](O)[C@H](N)[C@H]3O)C2(F)F)[C@H](N)[C@@H](O)[C@@H]1O [Compound 5FF-KMB, 5-deoxy-5,5-difluorokanamycin B] | 0.39 µg/mL (≈ 0.775 µM) | 12.5 µg/mL (≈ 24.8 µM) |  |  | > 100 µg/mL | 0.39 µg/mL (≈ 0.775 µM) | 3.12 µg/mL (≈ 6.2 µM) | 0.39 µg/mL (≈ 0.775 µM) | 0.78 µg/mL (≈ 1.55 µM) | 100 µg/mL (≈ 199 µM) | 6.25 µg/mL (≈ 12.4 µM) | 50 µg/mL (≈ 99.3 µM) | 1.56 µg/mL (≈ 3.1 µM) | > 100 µg/mL | 3.12 µg/mL (≈ 6.2 µM) | 1.56 µg/mL (≈ 3.1 µM) | 3.12 µg/mL (≈ 6.2 µM) |  |
| NCC[C@H](O)C(=O)N[C@@H]1C[C@H](N)[C@@H](O[C@H]2O[C@H](CN)[C@@H](O)[C@H](O)[C@H]2O)[C@H](O)[C@H]1O[C@H]1O[C@H](CO)[C@@H](O)[C@H](N)[C@H]1O [Amikacin, amikacin, reference compound] | 0.39 µg/mL (≈ 0.666 µM) | 1.56 µg/mL (≈ 2.66 µM) | > 300 mg/kg | 3.12 µg/mL (≈ 5.33 µM) | 1.56 µg/mL (≈ 2.66 µM) | 1.56 µg/mL (≈ 2.66 µM) |  |  |  | 100 µg/mL (≈ 171 µM) | 3.12 µg/mL (≈ 5.33 µM) | > 100 µg/mL |  | 50 µg/mL (≈ 85.4 µM) | 1.56 µg/mL (≈ 2.66 µM) | 1.56 µg/mL (≈ 2.66 µM) |  |  |
| NC[C@@H]1CC[C@@H](N)[C@@H](O[C@H]2[C@H](F)[C@@H](O[C@H]3O[C@H](CO)[C@@H](O)[C@H](N)[C@H]3O)[C@H](N)C[C@@H]2N)O1 [Compound 5F-DKB, 5,3',4'-trideoxy-5-fluorokanamycin B, reference compound] |  |  | ~135 mg/kg | 6.25 µg/mL (≈ 13.8 µM) | 3.12 µg/mL (≈ 6.88 µM) |  |  | 3.12 µg/mL (≈ 6.88 µM) |  |  |  | 3.12 µg/mL (≈ 6.88 µM) | 6.25 µg/mL (≈ 13.8 µM) |  |  | 6.25 µg/mL (≈ 13.8 µM) |  |  |
| NC[C@@H]1CC[C@@H](N)[C@@H](O[C@H]2[C@H](O)[C@@H](O[C@H]3O[C@H](CO)[C@@H](O)[C@H](N)[C@H]3O)[C@H](N)C[C@@H]2N)O1 [DKB, 3',4'-dideoxy-kanamycin B, reference compound] | < 0.2 µg/mL |  |  | 50 µg/mL (≈ 111 µM) |  | < 0.2 µg/mL |  | 0.39 µg/mL (≈ 0.864 µM) |  |  |  |  |  |  |  |  |  | MIC ([6]; Pseudomonas aeruginosa): 100 µg/mL (≈ 221 µM) |
| NCC[C@H](O)C(=O)N[C@@H]1C[C@H](N)[C@@H](O[C@H]2O[C@H](CN)[C@@H](O)C[C@H]2N)[C@H](F)[C@H]1O[C@H]1O[C@H](CO)[C@@H](O)[C@H](N)[C@H]1O [Compound 5F-TOB-AHB, 1-N-[4-amino-2-(S)-hydroxybutyryl]-5,3'-dideoxy-5-fluorokanamycinB, reference compound] |  | 0.39 µg/mL (≈ 0.683 µM) |  | 0.78 µg/mL (≈ 1.37 µM) | 0.39 µg/mL (≈ 0.683 µM) |  | < 0.2 µg/mL | < 0.2 µg/mL |  |  | 3.12 µg/mL (≈ 5.47 µM) | 3.12 µg/mL (≈ 5.47 µM) | 0.39 µg/mL (≈ 0.683 µM) | 1.56 µg/mL (≈ 2.73 µM) | 0.39 µg/mL (≈ 0.683 µM) |  | < 0.2 µg/mL |  |
